Converted amounts (≈) assume the structure as drawn. Bounds are passed on as bounds.

Data set [1] addresses KRAS G12C (GMPPNP-loaded) and cRAF (Ras-binding domain) interaction (Homo sapiens (Human), UniProt P01116, C118S/C51S/C80L/G12C). Kind of data set: Inhibition of KRAS G12C and cRAF binding (AlphaScreen). As to conditions: KRAS G12C loaded with GMPPNP, cRaf RBD, 2 hours preincubation; read-out: Raf-1 RBD K-Ras IC50. In outline:
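GMPPNP-loaded KRAS G12C in 25 mM Hepes pH 7.4, 150 mM NaCl, 5 mM MgCl2, 0.01% Triton X-100, 10 μM GMPPNP, 2% DMSO, preincubated with compound 2 h at room temperature. cRAF RBD plus AlphaScreen beads then added for 60-90 min; signal read at 570 nm.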
(Bead proximity is the source of the signal in Alpha formats.)

In data set [2] the target is KRAS G12C (GMPPNP-loaded) and PI3Ka (Ras-binding domain) interaction (Homo sapiens (Human), UniProt P01116, C118S/C51S/C80L/G12C). Kind of data set: Inhibition of KRAS G12C and PI3Ka binding (AlphaScreen). As to conditions: KRAS G12C loaded with GMPPNP, PI3Ka RBD, 2 hours preincubation; read-out: PI3K RBD K-Ras IC50. In outline:
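Biotin-AviTag Cys-light KRAS G12C (aa 1-169, C51S/C80L/C118S), GMPPNP-loaded, 1.5 nM, preincubated 2 h with compound, then His-tagged PI3Ka RBD (aa 157-300, 100 nM) plus AlphaScreen beads added for 60-90 min, RT. Buffer Hepes pH 7.4, 10 μM GMPPNP, 2% DMSO; 10-point 1:3 from 50 μM; 4-parameter IC50.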

Data set [3] can be described thus: Determination of kinetic solubility (pH 7.4). The class given is physicochemical. As to conditions: phosphate buffer, pH 7.4, aqueous buffer, kinetic from dmso stock, 50 mM phosphate buffer pH 7.4, read-out: Ksol, pH 7.4. In outline:
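Sample mixed with 50 mM phosphate buffer, pH 7.4, vortexed, then shaken 2 h at room temperature and centrifuged. Filtrate analysed by HPLC-UV and LC-MS/MS, with solubility read from peak areas against a standard calibration curve.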

The nature of data set [4]: Determination of logD (1-octanol / phosphate buffer pH 7.4). As to conditions: 1-octanol/phosphate buffer, pH 7.4, pH 7.4, 1-octanol/phosphate buffer; read-out: Log D, pH 7.4. The class given is physicochemical. In outline:
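Shake-flask partition between 1-octanol and 100 mM phosphate buffer pH 7.4, each phase presaturated with the other overnight. Tubes shaken 1 h at 800 rpm, room temperature, then centrifuged. Both phases quantified by LCMS and logD calculated from the ratio.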

KRAS G12C (GMPPNP-loaded) and PI3Ka (Ras-binding domain) interaction, sequence (P01116 other isoform, or with tags, fused parts or gaps G12C/C51S/C80L/C118S): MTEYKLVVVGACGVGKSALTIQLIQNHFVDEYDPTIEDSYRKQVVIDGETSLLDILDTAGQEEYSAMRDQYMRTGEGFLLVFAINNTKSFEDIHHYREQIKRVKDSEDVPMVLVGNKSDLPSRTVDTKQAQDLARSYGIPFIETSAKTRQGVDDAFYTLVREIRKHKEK
KRAS G12C (GMPPNP-loaded) and cRAF (Ras-binding domain) interaction, sequence (P01116 other isoform, or with tags, fused parts or gaps G12C/C51S/C80L/C118S): as above

What is called IC50 is the point on the concentration scale where inhibition reaches its midpoint. Regarding `N#CC[C@H]1CN(c2nc(OC[C@@]34CCCN3C[C@H](F)C4)nc3c(F)c(-c4cccc5ccc(F)c(Cl)c45)ncc23)CCN1C(=O)/C=C/CN1CC2CC(C1)O2` [Example 77, 2-((2S)-1-((E)-4-(6-oxa-3-azabicyclo[3.1.1]heptan-3-yl)but-2-enoyl)-4-(7-(8-chloro-7-fluoronaphthalen-1-yl)-8-fluoro-2-(((2R,7aS)-2-fluorotetrahydro-1H-pyrrolizin-7a(5H)-yl)methoxy)pyrido[4,3-d]pyrimidin-4-yl)piperazin-2-yl)acetonitrile], the IC50 in data set [1] and in data set [2] was under 10 nM each time. Further, the solubility kinetic at 2 h in data set [3] is 116 µg/mL (≈ 151 µM). In addition, the logD in data set [4] is 2.92.

On to `N#CC[C@H]1CN(c2nc(OC[C@@]34CCCN3C[C@H](F)C4)nc3c(F)c(-c4cccc5ccc(F)c(Cl)c45)ncc23)CCN1C(=O)/C=C/CN1CC2CCC(C1)O2` [Example 78, 2-((2S)-1-((E)-4-(8-oxa-3-azabicyclo[3.2.1]octan-3-yl)but-2-enoyl)-4-(7-(8-chloro-7-fluoronaphthalen-1-yl)-8-fluoro-2-(((2R,7aS)-2-fluorotetrahydro-1H-pyrrolizin-7a(5H)-yl)methoxy)pyrido[4,3-d]pyrimidin-4-yl)piperazin-2-yl)acetonitrile], for which the IC50 in data set [1] and in data set [2] was under 10 nM in each case. In addition, in data set [3], the solubility kinetic at 2 h came out at 85 µg/mL (≈ 108 µM). The logD in data set [4] stood at 3.64.

`N#CC[C@H]1CN(c2nc(OC[C@@]34CCCN3C[C@H](F)C4)nc3c(F)c(-c4cccc5ccc(F)c(Cl)c45)ncc23)CCN1C(=O)/C=C/CN1[C@@H]2CC[C@H]1COC2` [Example 79, 2-((S)-1-((E)-4-((1R,5S)-3-oxa-8-azabicyclo[3.2.1]octan-8-yl)but-2-enoyl)-4-(7-(8-chloro-7-fluoronaphthalen-1-yl)-8-fluoro-2-(((2R,7aS)-2-fluorotetrahydro-1H-pyrrolizin-7a(5H)-yl)methoxy)pyrido[4,3-d]pyrimidin-4-yl)piperazin-2-yl)acetonitrile]: the IC50 in data set [1] and in data set [2] was under 10 nM throughout. In data set [3], the solubility kinetic at 2 h stood at 155 µg/mL (≈ 197 µM). Further, the logD in data set [4] came to 3.53.

On to `CO[C@H]1CCN(C/C=C/C(=O)N2CCN(c3nc(OC[C@@]45CCCN4C[C@H](F)C5)nc4c(F)c(-c5cccc6ccc(F)c(Cl)c56)ncc34)C[C@@H]2CC#N)C1` [Example 80, 2-((S)-4-(7-(8-chloro-7-fluoronaphthalen-1-yl)-8-fluoro-2-(((2R,7aS)-2-fluorotetrahydro-1H-pyrrolizin-7a(5H)-yl)methoxy)pyrido[4,3-d]pyrimidin-4-yl)-1-((E)-4-((S)-3-methoxypyrrolidin-1-yl)but-2-enoyl)piperazin-2-yl)acetonitrile], for which the IC50 in data set [1] and in data set [2] was under 10 nM throughout. The solubility kinetic at 2 h in data set [3] was found to be 146 µg/mL (≈ 189 µM). Also, in data set [4], the logD was 3.2.

Turning to `N#CC[C@H]1CN(c2nc(OC[C@@]34CCCN3C[C@H](F)C4)nc3c(F)c(-c4cccc5cccc(Cl)c45)ncc23)CCN1C(=O)/C=C/CN1CC2CCC(C1)O2` [Example 81, 2-((2S)-1-((E)-4-(8-oxa-3-azabicyclo[3.2.1]octan-3-yl)but-2-enoyl)-4-(7-(8-chloronaphthalen-1-yl)-8-fluoro-2-(((2R,7aS)-2-fluorohexahydro-1H-pyrrolizin-7a-yl)methoxy)pyrido[4,3-d]pyrimidin-4-yl)piperazin-2-yl)acetonitrile], the IC50 in data set [1] and in data set [2] was under 10 nM in each case. Moreover, the solubility kinetic at 2 h in data set [3] was 74.4 µg/mL (≈ 96.7 µM). Besides, the logD in data set [4] turned out to be 3.7.

For the compound `N#CC[C@H]1CN(c2nc(OC[C@@]34CCCN3C[C@H](F)C4)nc3c(F)c(-c4cccc5ccc(F)c(Cl)c45)ncc23)CCN1C(=O)/C=C/CN1CCC(F)(F)CC1` [Example 82, 2-((S)-4-(7-(8-chloro-7-fluoronaphthalen-1-yl)-8-fluoro-2-(((2R,7aS)-2-fluorotetrahydro-1H-pyrrolizin-7a(5H)-yl)methoxy)pyrido[4,3-d]pyrimidin-4-yl)-1-((E)-4-(4,4-difluoropiperidin-1-yl)but-2-enoyl)piperazin-2-yl)acetonitrile], the IC50 in data set [1] and in data set [2] was under 10 nM each time. Further, in data set [3], the solubility kinetic at 2 h came out at 3.46 µg/mL (≈ 4.35 µM). In data set [4], the logD was determined as 4.2.

As to `N#CC[C@H]1CN(c2nc(OC[C@@]34CCCN3C[C@H](F)C4)nc3c(F)c(-c4cccc5ccc(F)c(F)c45)ncc23)CCN1C(=O)/C=C/CN1CCOCC1` [Example 83, 2-((S)-4-(7-(7,8-difluoronaphthalen-1-yl)-8-fluoro-2-(((2R,7aS)-2-fluorotetrahydro-1H-pyrrolizin-7a(5H)-yl)methoxy)pyrido[4,3-d]pyrimidin-4-yl)-1-((E)-4-morpholinobut-2-enoyl)piperazin-2-yl)acetonitrile], the IC50 in data set [1] and in data set [2] was under 10 nM in each case. In addition, the solubility kinetic at 2 h in data set [3] is 93.4 µg/mL (≈ 125 µM). In addition, in data set [4], the logD was 2.98.

As to `CO[C@@H]1CCN(C/C=C/C(=O)N2CCN(c3nc(OC[C@@]45CCCN4C[C@H](F)C5)nc4c(F)c(-c5cccc6ccc(F)c(Cl)c56)ncc34)C[C@@H]2CC#N)C1` [Example 85, 2-((S)-4-(7-(8-chloro-7-fluoronaphthalen-1-yl)-8-fluoro-2-(((2R,7aS)-2-fluorotetrahydro-1H-pyrrolizin-7a(5H)-yl)methoxy)pyrido[4,3-d]pyrimidin-4-yl)-1-((E)-4-((R)-3-methoxypyrrolidin-1-yl)but-2-enoyl)piperazin-2-yl)acetonitrile], the IC50 in data set [1] and in data set [2] was under 10 nM throughout. For the same compound, the solubility kinetic at 2 h in data set [3] was 85.5 µg/mL (≈ 110 µM). The logD in data set [4] is 2.97.

For `N#CC[C@H]1CN(c2nc(OC[C@@]34CCCN3C[C@H](F)C4)nc3c(F)c(-c4cccc5cccc(Cl)c45)ncc23)CCN1C(=O)/C=C/CN1CC2CC(C1)O2` [Example 86, 2-((2S)-1-((E)-4-(6-oxa-3-azabicyclo[3.1.1]heptan-3-yl)but-2-enoyl)-4-(7-(8-chloronaphthalen-1-yl)-8-fluoro-2-(((2R,7aS)-2-fluorohexahydro-1H-pyrrolizin-7a-yl)methoxy)pyrido[4,3-d]pyrimidin-4-yl)piperazin-2-yl)acetonitrile], the IC50 in data set [1] and in data set [2] was under 10 nM in each case. Besides, the solubility kinetic at 2 h in data set [3] was 96.6 µg/mL (≈ 128 µM). Also, in data set [4], the logD amounted to 2.9.

Consider `N#CC[C@H]1CN(c2nc(OC[C@@]34CCCN3C[C@H](F)C4)nc3c(F)c(-c4cccc5cccc(Cl)c45)ncc23)CCN1C(=O)/C=C/CN1[C@@H]2CC[C@H]1COC2` [Example 87, 2-((S)-1-((E)-4-((1R,5S)-3-oxa-8-azabicyclo[3.2.1]octan-8-yl)but-2-enoyl)-4-(7-(8-chloronaphthalen-1-yl)-8-fluoro-2-(((2R,7aS)-2-fluorohexahydro-1H-pyrrolizin-7a-yl)methoxy)pyrido[4,3-d]pyrimidin-4-yl)piperazin-2-yl)acetonitrile], for which the IC50 in data set [1] and in data set [2] was under 10 nM each time. For the same compound, the solubility kinetic at 2 h in data set [3] stood at 69.8 µg/mL (≈ 90.7 µM). Also, the logD in data set [4] was 3.27.

For `CCc1nccc(/C=C/C(=O)N2CCN(c3nc(OC[C@@]45CCCN4C[C@H](F)C5)nc4c(F)c(-c5cccc6ccc(F)c(Cl)c56)ncc34)C[C@@H]2CC#N)n1` [Example 88, 2-((S)-4-(7-(8-chloro-7-fluoronaphthalen-1-yl)-8-fluoro-2-(((2R,7aS)-2-fluorotetrahydro-1H-pyrrolizin-7a(5H)-yl)methoxy)pyrido[4,3-d]pyrimidin-4-yl)-1-((E)-3-(2-ethylpyrimidin-4-yl)acryloyl)piperazin-2-yl)acetonitrile], the IC50 in data set [1] and in data set [2] was under 10 nM throughout. In data set [3], the solubility kinetic at 2 h amounted to 45.9 µg/mL (≈ 59.7 µM). Further, the logD in data set [4] came to 4.55.

`Cc1cc(/C=C/C(=O)N2CCN(c3nc(OC[C@@]45CCCN4C[C@H](F)C5)nc4c(F)c(-c5cccc6ccc(F)c(Cl)c56)ncc34)C[C@@H]2CC#N)nc(C)n1` [Example 89, 2-((S)-4-(7-(8-chloro-7-fluoronaphthalen-1-yl)-8-fluoro-2-(((2R,7aS)-2-fluorotetrahydro-1H-pyrrolizin-7a(5H)-yl)methoxy)pyrido[4,3-d]pyrimidin-4-yl)-1-((E)-3-(2,6-dimethylpyrimidin-4-yl)acryloyl)piperazin-2-yl)acetonitrile]: the IC50 in data set [1] and in data set [2] was under 10 nM each time. The solubility kinetic at 2 h in data set [3] came out at 0.03 µg/mL (≈ 0.0391 µM). Moreover, in data set [4], the logD was 3.99.
